Target: T1, HCV NS3-4A serine protease (full-length NS3-4A protein, genotype 1a, strain HCV-1) (Hepatitis C virus genotype 1a, UniProt P26664)
T1 construct: using the full-length NS3-4A protein (genotype 1a, strain HCV-1)
Assay: HCV NS3-4A protease assay
Assay type: biochemical
Conditions: Protease IC50
Protocol: The inhibitory activity of certain compounds of Table A against HCV NS3-4A serine protease is determined in a homogenous assay using the full-length NS3-4A protein (genotype 1a, strain HCV-1) and a commercially available internally-quenched fluorogenic peptide substrate as described by Taliani, M., et al. 1996 Anal. Biochem. 240:60-67, which is incorporated by reference in its entirety.

T1 sequence (P26664 1658-1711): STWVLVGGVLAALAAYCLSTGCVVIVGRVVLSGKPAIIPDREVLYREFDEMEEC
T1 sequence (P26664 1027-1657): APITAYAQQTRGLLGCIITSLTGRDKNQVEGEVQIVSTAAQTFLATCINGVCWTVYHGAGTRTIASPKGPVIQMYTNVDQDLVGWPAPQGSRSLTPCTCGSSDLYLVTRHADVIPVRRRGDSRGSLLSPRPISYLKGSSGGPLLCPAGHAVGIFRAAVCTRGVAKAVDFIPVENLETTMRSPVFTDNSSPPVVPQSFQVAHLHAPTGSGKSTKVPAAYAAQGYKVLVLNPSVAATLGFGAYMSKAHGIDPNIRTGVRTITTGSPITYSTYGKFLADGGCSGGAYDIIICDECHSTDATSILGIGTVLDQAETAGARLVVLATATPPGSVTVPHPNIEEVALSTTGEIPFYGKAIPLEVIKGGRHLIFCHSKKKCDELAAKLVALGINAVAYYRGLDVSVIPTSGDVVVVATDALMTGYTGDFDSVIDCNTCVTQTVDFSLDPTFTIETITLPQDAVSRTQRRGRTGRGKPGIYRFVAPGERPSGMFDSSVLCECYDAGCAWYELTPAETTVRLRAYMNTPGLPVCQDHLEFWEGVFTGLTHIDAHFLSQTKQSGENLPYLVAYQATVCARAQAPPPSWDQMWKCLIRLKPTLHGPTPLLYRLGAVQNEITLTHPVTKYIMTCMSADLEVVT

| Structure (SMILES) | IC50 [nM] |
| --- | --- |
| CCCC(NC(=O)[C@@H]1C[C@@]2(CN1C(=O)C(NC(=O)[C@@H](NC(=O)C(C)(C)N1CCCC1)C1CCCCC1)C(C)(C)C)C(C)(C)C21CCC1)C(=O)NS(=O)(=O)C1CC1 (stereo partly drawn) [Compound 2, (5R,8S)-7-[2-({(2S)-2-cyclohexyl-2-[(2-methyl-2-pyrrolidin-1-ylpropanoyl)amino]acetyl}amino)-3,3-dimethylbutanoyl]-N-{1-[(cyclopropylsulfonyl)carba-moyl]butyl}-10,10-dimethyl-7-azadispiro[3.0.4.1]decane-8-carboxamide] | 2250 |
| CC(C)(C)[C@H](NC(=O)[C@@H](NC(=O)C(C)(C)N1CCCC1)C1CCCCC1)C(=O)N1C[C@]2(C[C@H]1C(=O)NC1(C(=O)NS(=O)(=O)C3CC3)CC1)C(C)(C)C21CCC1 [Compound 3, (5R,8S)-7-[(2S)-2-({(2S)-2-cyclohexyl-2-[(2-methyl-2-pyrrolidin-1-ylpropanoyl)amino]acetyl}amino)-3,3-dimethylbutanoyl]-N-{1-[(cyclopropylsulfonyl)carba-moyl]cyclopropyl}-10,10-dimethyl-7-azadispiro[3.0.4.1]decane-8-carboxamide] | 45 |
| C=C[C@@H]1C[C@]1(NC(=O)[C@@H]1C[C@@]2(CN1C(=O)[C@@H](NC(=O)[C@@H](NC(=O)[C@@H]1CCCCN1C(C)C)C(C)(C)C)C(C)(C)C)C(C)(C)C21CCC1)C(=O)NS(=O)(=O)c1cccc2cc[nH]c12 [Compound 4, (5R,8S)-N-{(1R,2S)-1-[(1H-indol-7-ylsulfonyl)carbamoyl]-2-vinylcyclopropyl}-7-[(2S)-2-{[(2S)-2-({[(2S)-1-isopropylpiperidin-2-yl]carbonyl}amino)-3,3-dimethylbutanoyl]amino}-3,3-dimethylbutanoyl]-10,10-dimethyl-7-azadispiro[3.0.4.1]decane-8-carboxamide] | 0.8 |
| C=C[C@@H]1C[C@]1(NC(=O)[C@@H]1C[C@@]2(CN1C(=O)C(NC(=O)[C@@H](NC(=O)OC(C)(C)C)C(C)(C)C)C(C)(C)C)C(C)(C)C21CCC1)C(=O)NS(=O)(=O)c1ccccc1 (stereo partly drawn) [Compound 5, tert-butyl {(1S)-1-[(1-{[(5R,8S)-10,10-dimethyl-8-({(1R,2S)-1-[(phenylsulfonyl)carbamoyl]-2-vinylcyclopropyl}carbamoyl)-7-azadispiro[3.0.4.1]dec-7-yl]carbonyl}-2,2-dimethylpropyl)carbamoyl]-2,2-dimethylpropyl}carbamate] | 1950 |
| C=C[C@@H]1C[C@]1(NC(=O)[C@@H]1C[C@@]2(CN1C(=O)[C@@H](NC(=O)[C@@H](NC(=O)OC(C)(C)C)C(C)(C)C)C(C)(C)C)C(C)(C)C21CCC1)C(=O)NS(=O)(=O)C1CC1 [Compound 6, tert-butyl [(1S)-1-{[(1S)-1-{[(5R,8S)-8-({(1R,2S)-1-[(cyclopropylsulfonyl)carba-moyl]-2-vinylcyclopropyl}carbamoyl)-10,10-dimethyl-7-azadispiro[3.0.4.1]dec-7-yl]carbonyl}-2,2-dimethylpropyl]carbamoyl}-2,2-dimethylpropyl]carbamate] | 80 |
| C=C[C@@H]1C[C@]1(NC(=O)[C@@H]1C[C@@]2(CN1C(=O)[C@@H](NC(=O)[C@@H](NC(=O)[C@@H]1CCCN(CCF)C1)C(C)(C)C)C(C)(C)C)C(C)(C)C21CCC1)C(=O)NS(=O)(=O)C1CC1 [Compound 8, (5R,8S)-N-{(1R,2S)-1-[(cyclopropylsulfonyl)carba-moyl]-2-vinylcyclopropyl}-7-[(2S)-2-{[(2S)-2-({[(3R)-1-(2-fluoroethyl)piperidin-3-yl]carbonyl}amino)-3,3-dimethylbutanoyl]amino}-3,3-dimethylbutanoyl]-10,10-dimethyl-7-azadispiro[3.0.4.1]decane-8-carboxamide] | 25 |
| C=C[C@@H]1C[C@]1(NC(=O)[C@@H]1C[C@@]2(CN1C(=O)[C@@H](NC(=O)[C@@H](NC(=O)[C@@H]1CCCCN1CCF)C(C)(C)C)C(C)(C)C)C(C)(C)C21CCC1)C(=O)NS(=O)(=O)C1CC1 [Compound 9, (5R,8S)-N-{(1R,2S)-1-[(cyclopropylsulfonyl)carba-moyl]-2-vinylcyclopropyl}-7-[(2S)-2-{[(2S)-2-({[(2S)-1-(2-fluoroethyl)piperidin-2-yl]carbonyl}amino)-3,3-dimethylbutanoyl]amino}-3,3-dimethylbutanoyl]-10,10-dimethyl-7-azadispiro[3.0.4.1]decane-8-carboxamide] | 8 |
| C=C[C@@H]1C[C@]1(NC(=O)[C@@H]1C[C@@]2(CN1C(=O)[C@@H](NC(=O)[C@@H](NC(=O)[C@@H]1CCCCN1CCF)C(C)(C)C)C(C)(C)C)C(C)(C)C21CCC1)C(=O)NS(=O)(=O)c1cccc2cc[nH]c12 [Compound 14, (5R,8S)-7-[(2S)-2-{[(2S)-2-({[(2S)-1-(2-fluoroethyl)piperidin-2-yl]carbonyl}amino)-3,3-dimethylbutanoyl]amino}-3,3-dimethylbutanoyl]-N-{(1R,2S)-1-[(1H-indol-7-ylsulfonyl)carbamoyl]-2-vinylcyclopropyl}-10,10-dimethyl-7-azadispiro[3.0.4.1]decane-8-carboxamide] | 6.5 |
| CC(C)N1CCCC[C@H]1C(=O)N[C@H](C(=O)N[C@H](C(=O)N1C[C@]2(CC1C(=O)NC1(C(=O)NS(=O)(=O)C3CC3)CC1(C)C)C(C)(C)C21CCC1)C(C)(C)C)C(C)(C)C (stereo partly drawn) [Compound 15, (5R)-N-{1-[(cyclopropylsulfonyl)carba-moyl]-2,2-dimethylcyclopropyl}-7-[(2S)-2-{[(2S)-2-({[(2S)-1-isopropylpiperidin-2-yl]carbonyl}amino)-3,3-dimethylbutanoyl]amino}-3,3-dimethylbutanoyl]-10,10-dimethyl-7-azadispiro[3.0.4.1]decane-8-carboxamide] | 3700 |

Same assay, conditions: read-out: Protease IC50

| IC50 [nM] | Structure (SMILES) |
| --- | --- |
| 100 | C=C[C@@H]1C[C@]1(NC(=O)[C@@H]1C[C@@]2(CN1C(=O)[C@@H](NC(=O)OC(C)(C)C)C(C)C)C(C)(C)C21CCC1)C(=O)NS(=O)(=O)C1CC1 [Compound 1, tert-butyl [(1S)-1-{[(5R,8S)-8-({(1R,2S)-1-[(cyclopropylsulfonyl)carba-moyl]-2-vinylcyclopropyl}carbamoyl)-10,10-dimethyl-7-azadispiro[3.0.4.1]dec-7-yl]carbonyl}-2-methylpropyl]carbamate] |
| 100 | C=C[C@@H]1C[C@]1(NC(=O)[C@@H]1C[C@@]2(CN1C(=O)[C@@H](NC(=O)CC1CCCCC1)C(C)(C)C)C(C)(C)C21CCC1)C(=O)NS(=O)(=O)C1CC1 [Compound 7, (5R,8S)-7-{(2S)-2-[(cyclohexylacetyl)amino]-3,3-dimethylbutanoyl}-N-{(1R,2S)-1-[(cyclopropylsulfonyl)carba-moyl]-2-vinylcyclopropyl}-10,10-dimethyl-7-azadispiro[3.0.4.1]decane-8-carboxamide] |
| 25 | C=C[C@@H]1C[C@]1(NC(=O)[C@@H]1C[C@@]2(CN1C(=O)[C@@H](NC(=O)OC1CCCC1)C(C)(C)C)C(C)(C)C21CCC1)C(=O)NS(=O)(=O)C1CC1 [Compound 10, cyclopentyl [(1S)-1-{[(5R,8S)-8-({(1R,2S)-1-[(cyclopropylsulfonyl)carba-moyl]-2-vinylcyclopropyl}carbamoyl)-10,10-dimethyl-7-azadispiro[3.0.4.1]dec-7-yl]carbonyl}-2,2-dimethylpropyl]carbamate] |
| 200 | C=C[C@@H]1C[C@]1(NC(=O)[C@@H]1C[C@@]2(CN1C(=O)[C@@H](NC(=O)c1ccc3cnccc3n1)C(C)(C)C)C(C)(C)C21CCC1)C(=O)NS(=O)(=O)C1CC1 [Compound 11, (5R,8S)-N-{(1R,2S)-1-[(cyclopropylsulfonyl)carba-moyl]-2-vinylcyclopropyl}-7-{(2S)-3,3-dimethyl-2-[(1,6-naphthyridin-2-ylcarbonyl)amino]butanoyl}-10,10-dimethyl-7-azadispiro[3.0.4.1]decane-8-carboxamide] |
| 400 | C=C[C@@H]1C[C@]1(NC(=O)[C@@H]1C[C@@]2(CN1C(=O)[C@@H](NCc1nc3ccccc3n1C)C(C)(C)C)C(C)(C)C21CCC1)C(=O)NS(=O)(=O)C1CC1 [Compound 12, (5R,8S)-N-{(1R,2S)-1-[(cyclopropylsulfonyl)carba-moyl]-2-vinylcyclopropyl}-7-[(2S)-3,3-dimethyl-2-{[(1-methyl-1H-benzimidazol-2-yl)methyl]amino}butanoyl]-10,10-dimethyl-7-azadispiro[3.0.4.1]decane-8-carboxamide] |
| 250 | C=C[C@@H]1C[C@]1(NC(=O)[C@@H]1C[C@@]2(CN1C(=O)[C@@H](NS(=O)(=O)c1nccn1C)C(C)(C)C)C(C)(C)C21CCC1)C(=O)NS(=O)(=O)C1CC1 [Compound 13, (5R,8S)-N-{(1R,2S)-1-[(cyclopropylsulfonyl)carba-moyl]-2-vinylcyclopropyl}-7-[(2S)-3,3-dimethyl-2-{[(1-methyl-1H-imidazol-2-yl)sulfonyl]amino}butanoyl]-10,10-dimethyl-7-azadispiro[3.0.4.1]decane-8-carboxamide] |
| 10 | C=C[C@@H]1C[C@]1(NC(=O)[C@@H]1C[C@@]2(CN1C(=O)[C@@H](NC(=O)N[C@H](CN1CCN(C)CC1)C(C)(C)C)C(C)(C)C)C(C)(C)C21CCC1)C(=O)NS(=O)(=O)C1CC1 [Compound 16, (5R,8S)-N-{(1R,2S)-1-[(cyclopropylsulfonyl)carba-moyl]-2-vinylcyclopropyl}-7-{(2S)-2-[({(1S)-2,2-dimethyl-1-[(4-methylpiperazin-1-yl)methyl]propyl}carbamoyl)amino]-3,3-dimethylbutanoyl}-10,10-dimethyl-7-azadispiro[3.0.4.1]decane-8-carboxamide] |

Reference: patent US20110182850A1, “ORGANIC COMPOUNDS AND THEIR USES” (priority 2009, published 2011)
